Measured values as given in ChEMBL document CHEMBL3112480, “γ-Alkylidene-γ-lactones and isobutylpyrrol-2(5H)-ones analogues to rubrolides as inhibitors of biofilm formation by gram-positive and gram-negative bacteria” (Bioorg Med Chem Lett, 2014).

Tests used:
Streptococcus mutans [1] = test: Antibacterial activity against Streptococcus mutans ATCC 25175 assessed as effect on planktonic growth at 2.73 ug/ml after 20 hrs relative to control; type: functional
Staphylococcus aureus [2] = test: Antibacterial activity against Staphylococcus aureus ATCC 25923 assessed as effect on planktonic growth at 43.8 ug/ml after 20 hrs relative to control; type: functional
Pseudomonas aeruginosa [3] = test: Antibacterial activity against Pseudomonas aeruginosa ATCC 27853 assessed as effect on planktonic growth at 43.8 ug/ml after 20 hrs relative to control; type: functional
Streptococcus mutans [4] = test: Antibacterial activity against Streptococcus mutans ATCC 25175 assessed as effect on planktonic growth at 0.34 ug/ml after 20 hrs relative to control; type: functional
Staphylococcus aureus [5] = test: Antibacterial activity against Staphylococcus aureus ATCC 25923 assessed as effect on planktonic growth at 0.68 ug/ml after 20 hrs relative to control; type: functional
Staphylococcus aureus [6] = test: Antibacterial activity against Staphylococcus aureus ATCC 25923 assessed as effect on planktonic growth at 0.34 ug/ml after 20 hrs relative to control; type: functional
Streptococcus mutans [7] = test: Antibacterial activity against Streptococcus mutans ATCC 25175 assessed as effect on planktonic growth at 21.9 ug/ml after 20 hrs relative to control; type: functional
Pseudomonas aeruginosa [8] = test: Antibacterial activity against Pseudomonas aeruginosa ATCC 27853 assessed as effect on planktonic growth at 2.73 ug/ml after 20 hrs relative to control; type: functional
Staphylococcus aureus [9] = test: Antibacterial activity against Staphylococcus aureus ATCC 25923 assessed as effect on planktonic growth at 10.9 ug/ml after 20 hrs relative to control; type: functional
[10] = system: Staphylococcus epidermidis; test: Antibacterial activity against Staphylococcus epidermidis ATCC 35547 assessed as effect on planktonic growth at 1.37 ug/ml after 20 hrs relative to control; type: functional
Staphylococcus aureus [11] = test: Antibacterial activity against Staphylococcus aureus ATCC 25923 assessed as effect on planktonic growth at 1.37 ug/ml after 20 hrs relative to control; type: functional
Streptococcus mutans [12] = test: Antibacterial activity against Streptococcus mutans ATCC 25175 assessed as effect on planktonic growth at 0.17 ug/ml after 20 hrs relative to control; type: functional
Staphylococcus aureus [13] = test: Antibacterial activity against Staphylococcus aureus ATCC 25923 assessed as effect on planktonic growth at 87.5 ug/ml after 20 hrs relative to control; type: functional
Pseudomonas aeruginosa [14] = test: Antibacterial activity against Pseudomonas aeruginosa ATCC 27853 assessed as effect on planktonic growth at 5.5 ug/ml after 20 hrs relative to control; type: functional
Pseudomonas aeruginosa [15] = test: Antibacterial activity against Pseudomonas aeruginosa ATCC 27853 assessed as effect on planktonic growth at 87.5 ug/ml after 20 hrs relative to control; type: functional
[16] = system: Staphylococcus epidermidis; test: Antibacterial activity against Staphylococcus epidermidis ATCC 35547 assessed as effect on planktonic growth at 0.34 ug/ml after 20 hrs relative to control; type: functional
Pseudomonas aeruginosa [17] = test: Antibacterial activity against Pseudomonas aeruginosa ATCC 27853 assessed as effect on planktonic growth at 0.68 ug/ml after 20 hrs relative to control; type: functional
[18] = system: Staphylococcus epidermidis; test: Antibacterial activity against Staphylococcus epidermidis ATCC 35547 assessed as effect on planktonic growth at 43.8 ug/ml after 20 hrs relative to control; type: functional
[19] = system: Staphylococcus epidermidis; test: Antibacterial activity against Staphylococcus epidermidis ATCC 35547 assessed as effect on planktonic growth at 5.5 ug/ml after 20 hrs relative to control; type: functional
[20] = system: Staphylococcus epidermidis; test: Antibacterial activity against Staphylococcus epidermidis ATCC 35547 assessed as effect on planktonic growth at 21.9 ug/ml after 20 hrs relative to control; type: functional
Streptococcus mutans [21] = test: Antibacterial activity against Streptococcus mutans ATCC 25175 assessed as effect on planktonic growth at 43.8 ug/ml after 20 hrs relative to control; type: functional
Streptococcus mutans [22] = test: Antibacterial activity against Streptococcus mutans ATCC 25175 assessed as effect on planktonic growth at 10.9 ug/ml after 20 hrs relative to control; type: functional
Streptococcus mutans [23] = test: Antibacterial activity against Streptococcus mutans ATCC 25175 assessed as effect on planktonic growth at 87.5 ug/ml after 20 hrs relative to control; type: functional
Pseudomonas aeruginosa [24] = test: Antibacterial activity against Pseudomonas aeruginosa ATCC 27853 assessed as inhibition of biofilm formation after 20 hrs by crystal-violet staining method; type: functional, organism-based
[25] = system: Staphylococcus epidermidis; test: Antibacterial activity against Staphylococcus epidermidis ATCC 35547 assessed as inhibition of biofilm formation after 20 hrs by crystal-violet staining method; type: functional, organism-based; settings: for IC50: ATCC 35547, 20 h
Streptococcus mutans [26] = test: Antibacterial activity against Streptococcus mutans ATCC 25175 assessed as effect on planktonic growth at 1.37 ug/ml after 20 hrs relative to control; type: functional
[27] = system: Staphylococcus epidermidis; test: Antibacterial activity against Staphylococcus epidermidis ATCC 35547 assessed as effect on planktonic growth at 2.73 ug/ml after 20 hrs relative to control; type: functional
Staphylococcus aureus [28] = test: Antibacterial activity against Staphylococcus aureus ATCC 25923 assessed as effect on planktonic growth at 5.5 ug/ml after 20 hrs relative to control; type: functional
Staphylococcus aureus [29] = test: Antibacterial activity against Staphylococcus aureus ATCC 25923 assessed as effect on planktonic growth at 2.73 ug/ml after 20 hrs relative to control; type: functional
Streptococcus mutans [30] = test: Antibacterial activity against Streptococcus mutans ATCC 25175 assessed as effect on planktonic growth at 5.5 ug/ml after 20 hrs relative to control; type: functional
Pseudomonas aeruginosa [31] = test: Antibacterial activity against Pseudomonas aeruginosa ATCC 27853 assessed as effect on planktonic growth at 0.17 ug/ml after 20 hrs relative to control; type: functional
[32] = system: Staphylococcus epidermidis; test: Antibacterial activity against Staphylococcus epidermidis ATCC 35547 assessed as effect on planktonic growth at 0.17 ug/ml after 20 hrs relative to control; type: functional
Streptococcus mutans [33] = test: Induction of biofilm formation in Streptococcus mutans ATCC 25175 at 44 ug/ml after 20 hrs by crystal-violet staining method relative to control
[34] = system: Staphylococcus epidermidis; test: Antibacterial activity against Staphylococcus epidermidis ATCC 35547 assessed as effect on planktonic growth at 10.9 ug/ml after 20 hrs relative to control; type: functional
Staphylococcus aureus [35] = test: Antibacterial activity against Staphylococcus aureus ATCC 25923 assessed as effect on planktonic growth at 0.17 ug/ml after 20 hrs relative to control; type: functional
Pseudomonas aeruginosa [36] = test: Antibacterial activity against Pseudomonas aeruginosa ATCC 27853 assessed as effect on planktonic growth at 0.34 ug/ml after 20 hrs relative to control; type: functional
Pseudomonas aeruginosa [37] = test: Antibacterial activity against Pseudomonas aeruginosa ATCC 27853 assessed as effect on planktonic growth at 21.9 ug/ml after 20 hrs relative to control; type: functional
[38] = system: Staphylococcus epidermidis; test: Antibacterial activity against Staphylococcus epidermidis ATCC 35547 assessed as effect on planktonic growth at 87.5 ug/ml after 20 hrs relative to control; type: functional
Staphylococcus aureus [39] = test: Antibacterial activity against Staphylococcus aureus ATCC 25923 assessed as effect on planktonic growth at 21.9 ug/ml after 20 hrs relative to control; type: functional
Streptococcus mutans [40] = test: Antibacterial activity against Streptococcus mutans ATCC 25175 assessed as effect on planktonic growth at 0.68 ug/ml after 20 hrs relative to control; type: functional
[41] = system: Staphylococcus epidermidis; test: Antibacterial activity against Staphylococcus epidermidis ATCC 35547 assessed as effect on planktonic growth at 0.68 ug/ml after 20 hrs relative to control; type: functional
Pseudomonas aeruginosa [42] = test: Antibacterial activity against Pseudomonas aeruginosa ATCC 27853 assessed as effect on planktonic growth at 10.9 ug/ml after 20 hrs relative to control; type: functional
Pseudomonas aeruginosa [43] = test: Antibacterial activity against Pseudomonas aeruginosa ATCC 27853 assessed as effect on planktonic growth at 1.37 ug/ml after 20 hrs relative to control; type: functional
Pseudomonas aeruginosa [44] = test: Induction of biofilm formation in Pseudomonas aeruginosa ATCC 27853 at 87.5 ug/ml after 20 hrs by crystal-violet staining method relative to control; type: organism-based

`COc1ccc(C)cc1C1=C(Br)C(=O)O/C1=C\c1cccc(Cl)c1` gave an Activity (Streptococcus mutans [1]) of 8.2%, an Activity (Staphylococcus aureus [2]) of 66.1% and an Activity (Pseudomonas aeruginosa [3]) of -8.5%. The Activity (Streptococcus mutans [4]) was 9.9%, the Activity (Staphylococcus aureus [5]) was 52.2% and the Activity (Staphylococcus aureus [6]) was 47.5%. For the same molecule, the Activity (Streptococcus mutans [7]) was 12.1%, the Activity (Pseudomonas aeruginosa [8]) was -4.8% and the Activity (Staphylococcus aureus [9]) was 34.9%. For the same molecule, the Activity [10] was 4.9%, the Activity (Staphylococcus aureus [11]) was 50.6% and the Activity (Streptococcus mutans [12]) was 10.2%. For the same molecule, the Activity (Staphylococcus aureus [13]) was 131%, the Activity (Pseudomonas aeruginosa [14]) was -8.9% and the Activity (Pseudomonas aeruginosa [15]) was 7.8%. For the same molecule, the Activity [16] was 10.3%, the Activity (Pseudomonas aeruginosa [17]) was -0.1% and the Activity [18] was 12.7%. The Activity [19] was 4%, the Activity [20] was 8.9% and the Activity (Streptococcus mutans [21]) was 19.8%. For the same molecule, the Activity (Streptococcus mutans [22]) was -2.7%, the Activity (Streptococcus mutans [23]) was 34.9% and the inhibition (Pseudomonas aeruginosa [24]) was “Dose-dependent effect”. The IC50 (Pseudomonas aeruginosa [24]; ATCC 27853, 20 h) was > 87.5 µg/mL, the inhibition [25] was “Dose-dependent effect” and the IC50 [25] was > 87.5 µg/mL. It also gave an Activity (Streptococcus mutans [26]) of 0%, an Activity [27] of -4% and an Activity (Staphylococcus aureus [28]) of 35.4%. For the same molecule, the Activity (Staphylococcus aureus [29]) was 46.8%, the Activity (Streptococcus mutans [30]) was 5.2% and the Activity (Pseudomonas aeruginosa [31]) was -3%. For the same molecule, the Activity [32] was 13.2%, the Activity (Streptococcus mutans [33]) was “Toxic” and the Activity [34] was -3.1%. The Activity (Staphylococcus aureus [35]) was 23%, the Activity (Pseudomonas aeruginosa [36]) was -4.8% and the Activity (Pseudomonas aeruginosa [37]) was -12.1%. It also gave an Activity [38] of 33.8%, an Activity (Staphylococcus aureus [39]) of 39.3% and an Activity (Streptococcus mutans [40]) of -5.8%. The Activity [41] was 11.9%, the Activity (Pseudomonas aeruginosa [42]) was -14% and the Activity (Pseudomonas aeruginosa [43]) was 0.8%.
In the case of `COc1cccc(/C=C2\C(c3cc(Cl)ccc3OC)=C(Br)C(=O)N2CC(C)C)c1`, the Activity (Streptococcus mutans [1]) is reported as 3.5%, the Activity (Staphylococcus aureus [2]) is reported as 20.4% and the Activity (Pseudomonas aeruginosa [3]) is reported as 24.2%. It also gave an Activity (Streptococcus mutans [4]) of 6.1%, an Activity (Staphylococcus aureus [5]) of 39.1% and an Activity (Staphylococcus aureus [6]) of 49.8%. The Activity (Streptococcus mutans [7]) was 14.8%, the Activity (Pseudomonas aeruginosa [8]) was -5.3% and the Activity (Pseudomonas aeruginosa [44]) was 84.6%. The Activity (Staphylococcus aureus [9]) was 11.5%, the Activity [10] was 4.2% and the Activity (Staphylococcus aureus [11]) was 36.2%. The Activity (Streptococcus mutans [12]) was 2.2%, the Activity (Staphylococcus aureus [13]) was 9.8% and the Activity (Pseudomonas aeruginosa [14]) was 2.8%. For the same molecule, the Activity (Pseudomonas aeruginosa [15]) was 9.6%, the Activity [16] was 0.4% and the Activity (Pseudomonas aeruginosa [17]) was 0.3%. For the same molecule, the Activity [18] was 44.9%, the Activity [19] was 4.1% and the Activity [20] was 25.4%. The Activity (Streptococcus mutans [21]) was 44.1%, the Activity (Streptococcus mutans [22]) was 17% and the Activity (Streptococcus mutans [23]) was 76.4%. The inhibition (Pseudomonas aeruginosa [24]) was “Dose-dependent effect”, the inhibition [25] was “Dose-dependent effect” and the IC50 [25] was > 87.5 µg/mL. It also gave an Activity (Streptococcus mutans [26]) of -3.9%, an Activity [27] of 1.5% and an Activity (Staphylococcus aureus [28]) of 92.3%. For the same molecule, the Activity (Staphylococcus aureus [29]) was 34%, the Activity (Streptococcus mutans [30]) was 8.3% and the Activity (Pseudomonas aeruginosa [31]) was 18%. For the same molecule, the Activity [32] was 0.7%, the Activity [34] was 12.7% and the Activity (Staphylococcus aureus [35]) was 45.5%. The Activity (Pseudomonas aeruginosa [36]) was 2.9%, the Activity (Pseudomonas aeruginosa [37]) was 19.6% and the Activity [38] was 45.3%. The Activity (Staphylococcus aureus [39]) was 14%, the Activity (Streptococcus mutans [40]) was -1.7% and the Activity [41] was 0.3%. It also gave an Activity (Pseudomonas aeruginosa [42]) of 8.8% and an Activity (Pseudomonas aeruginosa [43]) of -6.6%.
